In brackets after ≈: the same amount, converted by molar mass. Read-outs that look alike come from different tables or passages of the source.
Key:
Assay type in all cases: cell-based
P. aeruginosa ATCC 27853 = experiment: MIC against P. aeruginosa ATCC 27853; conditions: Pseudomonas aeruginosa, ATCC27853
[1] = test system: S. aureus Micromyx USA 300; experiment: MIC against S. aureus Micromyx USA 300; conditions: Staphylococcus aureus, USA300
H. influenzae ATCC 49247 = experiment: MIC against H. influenzae ATCC 49247; conditions: Haemophilus influenzae, ATCC49247
[2] = test system: P. aeruginosa MMX Mex parent strain; experiment: MIC against P. aeruginosa MMX Mex parent strain; conditions: Pseudomonas aeruginosa
E. coli ATCC 15922 = experiment: MIC against E. coli ATCC 15922; conditions: Escherichia coli, ATCC15922
B. fragilis ATCC 25285 = experiment: MIC against B. fragilis ATCC 25285; conditions: Bacteroides fragilis, ATCC25285
[3] = test system: E. faecalis MMX 847 Macrolide-Resistant; experiment: MIC against E. faecalis MMX 847 Macrolide-Resistant; conditions: Enterococcus faecalis
C. difficile BAA 1805 = experiment: MIC against C. difficile BAA 1805; conditions: Clostridioides difficile, BAA1805
[4] = test system: S. aureus MP-549 msr(a) USA 300; experiment: MIC against S. aureus MP-549 msr(a) USA 300; conditions: Staphylococcus aureus, USA300, S. aureus MP-549 msr(a) USA 300
[5] = test system: S. pyogenes MMX 946 Macrolide-Resistant; experiment: MIC against S. pyogenes MMX 946 Macrolide-Resistant; conditions: Streptococcus pyogenes
E. coli MMX 0121 ΔTolC = experiment: MIC against E. coli MMX 0121 ΔTolC; conditions: Escherichia coli
S. pneumoniae ATCC 49619 = experiment: MIC against S. pneumoniae ATCC 49619; conditions: Streptococcus pneumoniae, ATCC49619; S. pneumoniae ATCC 49619; read-out: MIC
[6] = test system: S. pneumoniae MMX 3028 cErmB; experiment: MIC against S. pneumoniae MMX 3028 cErmB; conditions: Streptococcus pneumoniae, MMX3028CERMB
[7] = test system: S. pneumoniae MMX 3031 cMefA; experiment: MIC against S. pneumoniae MMX 3031 cMefA; conditions: Streptococcus pneumoniae, MMX3031CMEFA
S. pyogenes ATCC 19615 = experiment: MIC against S. pyogenes ATCC 19615; conditions: Streptococcus pyogenes, ATCC19615; S. pyogenes ATCC 19615; read-out: MIC
[8] = test system: E. coli MMX TolC parent strain; experiment: MIC against E. coli MMX TolC parent strain; conditions: Escherichia coli
[9] = test system: P. aeruginosa MMX 3476 Δmex; experiment: MIC against P. aeruginosa MMX 3476 Δmex; conditions: Pseudomonas aeruginosa
S. aureus MMX 3035 cErmA = experiment: MIC against S. aureus MMX 3035 cErmA; conditions: Staphylococcus aureus, MMX3035CERMA
S. aureus ATCC 29213 = experiment: MIC against S. aureus ATCC 29213; conditions: Staphylococcus aureus
E. coli ATCC 25922 = experiment: MIC against E. coli ATCC 25922; conditions: Escherichia coli, ATCC25922
E. faecalis ATCC 29212 = experiment: MIC against E. faecalis ATCC 29212; conditions: Enterococcus faecalis
S. aureus BAA 977 iErmA = experiment: MIC against S. aureus BAA 977 iErmA; conditions: Staphylococcus aureus, BAA977
K. pneumoniae ATCC 10031 = experiment: MIC against K. pneumoniae ATCC 10031; conditions: Klebsiella pneumoniae, ATCC10031; K. pneumoniae ATCC 10031; read-out: MIC
E. coli MP-9 ΔTolC = experiment: MIC against E. coli MP-9 ΔTolC; conditions: Escherichia coli
[10] = test system: E. coli MP-74 LptD mutant; experiment: MIC against E. coli MP-74 LptD mutant; conditions: Escherichia coli
[11] = S. aureus Micromyx USA 300, read-out: MIC
[12] = H. influenzae ATCC 49247, read-out: MIC
[13] = E. coli ATCC 15922, read-out: MIC
[14] = B. fragilis ATCC 25285, read-out: MIC
[15] = S. pneumoniae MMX 3028 cErmB, read-out: MIC
[16] = ATCC29213, S. aureus ATCC 29213, read-out: MIC

SMILES	MIC [1, 11]	MIC (H. influenzae ATCC 49247; [12])	MIC (E. coli ATCC 15922; [13])	MIC (B. fragilis ATCC 25285; [14])	MIC [3]	MIC (P. aeruginosa ATCC 27853)	MIC [2]	MIC (E. coli ATCC 15922)	MIC (E. coli MMX 0121 ΔTolC)	MIC (S. pneumoniae ATCC 49619)	MIC [6, 15]	MIC [7]	MIC (S. pyogenes ATCC 19615)	MIC [8]	MIC [9]	MIC (S. aureus MMX 3035 cErmA)	MIC (S. aureus ATCC 29213; [16])	MIC (E. coli ATCC 25922)	MIC [5]	MIC (S. aureus BAA 977 iErmA)	also measured
CSC1O[C@H]([C@H](NC(=O)[C@H]2NC[C@@H]3C[C@@H](c4ccc(C(F)(F)F)cc4)CCO[C@H]32)[C@H](C)Cl)C(O)[C@@H](O)[C@H]1O (stereo partly shown) [FSA-509019]	0.5 µg/mL (≈ 0.858 µM)	4 µg/mL (≈ 6.86 µM)	> 64 µg/mL	–	–	–	–	–	–	–	–	–	–	–	–	–	–	–	–	–	MIC (P. aeruginosa ATCC 27853; P. aeruginosa ATCC 27853, read-out: MIC): > 64 µg/mL; MIC ([2]; P. aeruginosa MMX Mex parent strain, read-out: MIC): > 64 µg/mL
CSC1O[C@H]([C@H](NC(=O)[C@@H]2[C@@H]3OCC=CC[C@H]3CN2C)[C@H](C)Sc2ccc(-c3cncnc3)cc2)C(O)[C@@H](O)[C@H]1O (stereo partly shown) [FSA-212034]	–	4 µg/mL (≈ 6.64 µM)	–	1 µg/mL (≈ 1.66 µM)	> 64 µg/mL	> 64 µg/mL	> 64 µg/mL	> 64 µg/mL	1 µg/mL (≈ 1.66 µM)	≤ 0.06 µg/mL	4 µg/mL (≈ 6.64 µM)	≤ 0.06 µg/mL	≤ 0.06 µg/mL	> 64 µg/mL	> 64 µg/mL	–	–	–	–	–	MIC (C. difficile BAA 1805): 0.5 µg/mL (≈ 0.829 µM); MIC [4]: 0.5 µg/mL (≈ 0.829 µM); MIC ([5]; S. pyogenes MMX 946 Macrolide-Resistant (MacRes), read-out: MIC): 2 µg/mL (≈ 3.32 µM)
C=CC1=CCO[C@@H]2[C@H](CN[C@@H]2C(=O)N[C@H]([C@H](C)Cl)[C@H]2OC(SC)[C@H](O)[C@H](O)C2O)C1 (stereo partly shown) [FSA-507041]	–	–	–	2 µg/mL (≈ 4.32 µM)	> 32 µg/mL	> 32 µg/mL	> 32 µg/mL	–	–	< 0.03 µg/mL	–	< 0.03 µg/mL	0.06 µg/mL (≈ 0.13 µM)	> 32 µg/mL	> 32 µg/mL	> 32 µg/mL	0.5 µg/mL (≈ 1.08 µM)	> 32 µg/mL	> 32 µg/mL	0.5 µg/mL (≈ 1.08 µM)	MIC (C. difficile BAA 1805; C. difficile BAA 1805, read-out: MIC): 0.5 µg/mL (≈ 1.08 µM); MIC (E. faecalis ATCC 29212; ATCC29212, read-out: MIC): 2 µg/mL (≈ 4.32 µM)
CSC1O[C@H]([C@H](NC(=O)[C@H]2NC[C@@H]3C=C(c4ccc(F)cc4)CCO[C@@H]23)[C@H](C)Cl)C(O)[C@@H](O)[C@H]1O (stereo partly shown) [FSA-507052]	0.5 µg/mL (≈ 0.942 µM)	–	–	–	> 32 µg/mL	> 32 µg/mL	> 32 µg/mL	> 32 µg/mL	> 32 µg/mL	–	–	–	–	> 32 µg/mL	> 32 µg/mL	> 32 µg/mL	2 µg/mL (≈ 3.77 µM)	–	> 32 µg/mL	2 µg/mL (≈ 3.77 µM)	MIC (B. fragilis ATCC 25285): > 32 µg/mL; MIC (H. influenzae ATCC 49247): > 32 µg/mL; MIC (E. faecalis ATCC 29212; ATCC29212, read-out: MIC): 1 µg/mL (≈ 1.88 µM); MIC [6]: > 32 µg/mL
CSC1O[C@H]([C@H](NC(=O)[C@H]2NC[C@@H]3C[C@@H](c4ccc(F)cc4F)CCO[C@H]32)[C@H](C)Cl)C(O)[C@@H](O)[C@H]1O (stereo partly shown) [FSA-511078]	–	–	> 64 µg/mL	–	–	–	–	–	–	≤ 0.06 µg/mL	4 µg/mL (≈ 7.26 µM)	≤ 0.06 µg/mL	≤ 0.06 µg/mL	–	–	–	–	–	–	–	MIC (S. aureus MMX 3035 cErmA; S. aureus MMX 3035 cErmA, read-out: MIC): > 64 µg/mL; MIC (K. pneumoniae ATCC 10031): 8 µg/mL (≈ 14.5 µM); MIC (E. coli MP-9 ΔTolC): 2 µg/mL (≈ 3.63 µM); MIC [10]: 8 µg/mL (≈ 14.5 µM)
C[C@@H](O)[C@@H](NC(=O)[C@H]1NC[C@@H]2CC=CCO[C@H]21)[C@H]1OC(CN=[N+]=[N-])[C@H](O)[C@H](O)C1O (stereo partly shown) [FSA-211064]	–	–	–	–	> 64 µg/mL	> 64 µg/mL	> 64 µg/mL	–	> 64 µg/mL	–	–	–	4 µg/mL (≈ 9.36 µM)	> 64 µg/mL	> 64 µg/mL	> 64 µg/mL	–	> 64 µg/mL	> 64 µg/mL	> 64 µg/mL	MIC (B. fragilis ATCC 25285): > 64 µg/mL; MIC [1]: > 64 µg/mL; MIC (H. influenzae ATCC 49247): > 64 µg/mL; MIC (S. aureus ATCC 29213; ATCC29213): > 64 µg/mL; MIC (E. faecalis ATCC 29212; ATCC29212): > 64 µg/mL; MIC [6]: > 64 µg/mL

— patent publication US20220073554A1, “LINCOSAMIDE ANTIBIOTICS AND USES THEREOF” (President and Fellows of Harvard College, priority 2017, published 2022)
